Data from paper PMC12466451 (Antibiotics, 2025).

Experiment: Surfactin C metabolism study: metabolic stability in liver microsomes with NADPH
Format: in vitro ADME, chicken
Conditions: for percentage of initial concentration remaining after incubation with microsomes: chicken liver microsomes 0.5 mg/mL, NADPH, 1.0 µM, 37 °C, 120 min; for t1/2 / k (elimination rate constant): chicken liver microsomes; for t1/2: t1/2 = ln(2)/k; for k (elimination rate constant): slope of ln-concentration versus time plot, 0-120 min
Experimental: After determining the presence of surfactin C analogues in F1, BPR-17 and BPR-16, an in vitro metabolism assay was conducted to investigate the bioavailability and stability of these compounds. This study involved incubating the bioactive metabolites with liver microsomes obtained from chickens to predict and evaluate their potential efficacy and bioavailability once digested. The microsomal assay was performed by first harvesting the chicken microsomes from the liver. Once obtained, these were incubated with the surfactin C compounds in the presence of NADPH, which serves as an essential cofactor for cytochrome P450 enzymes. The degradation of surfactin C analogues over time was monitored by measuring their peak areas using LC-MS/MS [29]. Additionally, a positive control compound (verapamil) was used to confirm the metabolic activity of the liver microsomes.
Preparation of microsomes from liver tissue was performed according to the protocols developed by Knights et al. 2016 [45]. Livers from chickens approximately 42 days old were obtained from Golden Cockerel poultry processors (Mount Cotton, QLD, Australia). Immediately after harvesting, the livers were washed in 1.15% KCl in lab grade H2O to remove excess blood and transported to the laboratory on ice for processing. To prepare the microsomes, 10 g of liver tissue was homogenized in buffer (10 mM potassium phosphate, pH 7.4) using an Ultraturrax-style homogeniser with three 30-s bursts, cooling the sample on ice between each burst. The homogenate was then centrifuged at 7000× g for 10 min at 4 °C. The crude pellet was discarded, and the supernatant was further separated by ultracentrifugation at 105,000× g for 60 min at 4 °C. The supernatant was decanted, and the pellet was rinsed with 1 mL of microsome buffer. The rinsing and ultracentrifugation process was repeated twice, and the resulting pellet was resuspended in microsome storage buffer and stored at −80 °C until further use. A Bradford assay was used to determine the concentration of the protein in the sample [46].
The test compounds C13-C1_6 surfactin C (10.0 mM) were prepared in DMSO, and the metabolic stability of test compounds was determined in triplicate in an oscillating water bath (Grant) at 37 °C and 150 RPM [25]. Positive control (verapamil; 0.001 mM) and negative control (without NADPH regeneration system) incubations were conducted concurrently. Tubes containing potassium phosphate buffer (100 mM) at pH 7.4, microsomal protein stock solution (0.5 mg/mL), test compound solution (1.0 µM) and glucose-6-phosphate dehydrogenase (1 IU/mL) were preincubated at 37 °C for 5 min prior to the reaction being initiated by the addition of 25 µL of a 20× stock of an NADPH regeneration system (NRS) containing NADP (1.3 mM). The total incubation volume was 0.5 mL. The mixture was then incubated at 37 °C in an oscillating water bath (Grant) at 150 RPM for 0, 10, 20, 30, 60, and 120 min. At each time point, reactions were terminated by the addition of 150 µL of ice-cold acetonitrile containing cyclosporin A (60 ng/mL) as an internal standard for test compounds or clotrimazole (50 ng/mL) for verapamil. The test tubes were centrifuged at 13,000× g for 5 min, and ~100 µL of supernatant was transferred to polypropylene 96-well plates for LC-MS/MS analysis using a Waters ALLIANCE HPLC system coupled to a Waters Quattro Micro triple quadrupole mass spectrometer (Milford, MA, USA). Chromatographic separation was achieved using a Phenomenex HPLC C18 column (4.6 × 50 mm, 3 µm). Mass spectrometric detection was performed in negative ion multiple reaction monitoring mode with argon as the collision gas. Data acquisition and processing were carried out using MassLynx software (version 4.1, Waters). The half-life (t1/2) of each test compound was calculated using the equation t1/2 = ln(2)/k, where k is the elimination rate constant derived from the slope obtained from the ln-concentration versus time plot.

Substance | percentage of initial concentration remaining after incubation with microsomes | t1/2 [h] | k (elimination rate constant)
C13 surfactin C | approximately 84% | 19.25 | 
C15 surfactin C | ~99% | 14.438 | 0.0008
C16 surfactin C | ~92% | 16.5 | 0.0007
C14 surfactin C | ~95% |  | 
